# Results reported in PMC9848300, “Discovery of novel enasidenib analogues targeting inhibition of mutant isocitrate dehydrogenase 2 as antileukaemic agents” (Journal of Enzyme Inhibition and Medicinal Chemistry, 2023).
# How the values were obtained:
# CCRF-CEM = experiment: NCI 60 antitumor screening (single dose / five doses); type: cell-based; conditions: Homo sapiens, CCRF-CEM, read-out: Growth inhibition percentage (GI %)
# K-562 = experiment: as above; type: cell-based; conditions: Homo sapiens, K562, read-out: Growth inhibition percentage (GI %)
# MOLT-4 = experiment: as above; type: cell-based; conditions: Homo sapiens, MOLT-4, read-out: Growth inhibition percentage (GI %)
# SR = experiment: as above; type: cell-based; conditions: Homo sapiens, SR, read-out: Growth inhibition percentage (GI %)
# EKVX = experiment: as above; type: cell-based; conditions: Homo sapiens, EKVX, read-out: Growth inhibition percentage (GI %)
# HOP-92 = experiment: as above; type: cell-based; conditions: Homo sapiens, HOP-92, read-out: Growth inhibition percentage (GI %)
# NCI-H460 = experiment: NCI 60 antitumor screening (single dose); type: cell-based; conditions: Homo sapiens; NCI-H460 (non-small cell lung cancer), single dose 10 μM; read-out: Growth inhibition percentage (GI %)
# How it was run: (§1)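 Values are GI% (100 minus percent growth, G%) from the NCI 60 cell line screen at one 10 μM concentration. Tests were done in triplicate under NCI protocol, with a mean across the whole panel reported as well.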
# OVCAR-3 = experiment: NCI 60 antitumor screening (single dose); type: cell-based; conditions: Homo sapiens; OVCAR-3 (ovarian cancer), single dose 10 μM; read-out: Growth inhibition percentage (GI %)
# How it was run: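 NCI-60 one-dose screen. Dose: 10 μM. Lines: 60 human tumour lines, nine tissue types. Output: GI% = 100 − G%.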
# SF-268 = experiment: NCI 60 antitumor screening (single dose); type: cell-based; conditions: Homo sapiens; SF-268 (CNS cancer), single dose 10 μM; read-out: Growth inhibition percentage (GI %)
# How it was run: as §1
# COLO 205 = experiment: NCI 60 antitumor screening (single dose / five doses); type: cell-based; conditions: Homo sapiens, COLO 205, read-out: Growth inhibition percentage (GI %)
# HT29 = experiment: as above; type: cell-based, human; conditions: Homo sapiens, HT-29, read-out: Growth inhibition percentage (GI %)
# SW-620 = experiment: as above; type: cell-based, human; conditions: Homo sapiens, SW-620, read-out: Growth inhibition percentage (GI %)
# SF-539 = experiment: as above; type: cell-based; conditions: Homo sapiens, SF-539, read-out: Growth inhibition percentage (GI %)
# MALME-3M = experiment: as above; type: cell-based; conditions: Homo sapiens, Malme-3M, read-out: Growth inhibition percentage (GI %)
# MDA-MB-435 = experiment: as above; type: cell-based; conditions: Homo sapiens, MDA-MB-435, read-out: Growth inhibition percentage (GI %)
# SK-MEL-2 = experiment: as above; type: cell-based; conditions: Homo sapiens, SK-MEL-2, read-out: Growth inhibition percentage (GI %)
# SK-MEL-28 = experiment: as above; type: cell-based; conditions: Homo sapiens, SK-MEL-28, read-out: Growth inhibition percentage (GI %)
# SK-MEL-5 = experiment: as above; type: cell-based; conditions: Homo sapiens, SK-MEL-5, read-out: Growth inhibition percentage (GI %)
# UACC-257 = experiment: as above; type: cell-based; conditions: Homo sapiens, UACC-257, read-out: Growth inhibition percentage (GI %)
# UACC-62 = experiment: as above; type: cell-based; conditions: Homo sapiens, UACC-62, read-out: Growth inhibition percentage (GI %)
# IGROV1 = experiment: as above; type: cell-based; conditions: Homo sapiens, IGROV-1, read-out: Growth inhibition percentage (GI %)
# 786-0 = experiment: as above; type: cell-based; conditions: Homo sapiens, 786-0, read-out: Growth inhibition percentage (GI %)
# A498 = experiment: as above; type: cell-based; conditions: Homo sapiens, A498, read-out: Growth inhibition percentage (GI %)
# ACHN = experiment: as above; type: cell-based; conditions: Homo sapiens, ACHN, read-out: Growth inhibition percentage (GI %)
# SN 12C = experiment: as above; type: cell-based; conditions: Homo sapiens, SN12C, read-out: Growth inhibition percentage (GI %)
# UO-31 = experiment: as above; type: cell-based; conditions: Homo sapiens, UO-31, read-out: Growth inhibition percentage (GI %)
# MDA-MB-231/ATCC = experiment: as above; type: cell-based; conditions: Homo sapiens, MDA-MB-231, read-out: Growth inhibition percentage (GI %)
# MDA-MB-468 = experiment: as above; type: cell-based; conditions: Homo sapiens, MDA-MB-468, read-out: Growth inhibition percentage (GI %)
smiles,measurement,setting,value
"O=[N+]([O-])c1cccc(/C=N/Nc2nc(N/N=C/c3cccc([N+](=O)[O-])c3)nc(N3CCCCC3)n2)c1 [compound 7f, 2,4-Bis[(E)-2-[(3-Nitrophenyl)methylidene]hydrazin-1-yl]-6-(piperidin-1-yl)-1,3,5-triazine]",inhibition at 10 µM,CCRF-CEM,65.1%
same,inhibition at 10 µM,K-562,67.6%
same,inhibition at 10 µM,MOLT-4,57.2%
same,inhibition at 10 µM,SR,53.3%
same,inhibition at 10 µM,EKVX,34.9%
same,inhibition at 10 µM,HOP-92,20.9%
same,inhibition at 10 µM,NCI-H460,31.3%
same,inhibition at 10 µM,OVCAR-3,44.4%
same,inhibition at 10 µM,SF-268,24.3%
same,inhibition at 10 µM,COLO 205,24.1%
same,inhibition at 10 µM,HT29,36.3%
same,inhibition at 10 µM,SW-620,16.5%
same,inhibition at 10 µM,SF-539,7.37%
same,inhibition at 10 µM,MALME-3M,7.94%
same,inhibition at 10 µM,MDA-MB-435,26.1%
same,inhibition at 10 µM,SK-MEL-2,36%
same,inhibition at 10 µM,SK-MEL-28,31.4%
same,inhibition at 10 µM,SK-MEL-5,52.4%
same,inhibition at 10 µM,UACC-257,4.25%
same,inhibition at 10 µM,UACC-62,43.7%
same,inhibition at 10 µM,IGROV1,51.3%
same,inhibition at 10 µM,786-0,-6.21%
same,inhibition at 10 µM,A498,18.7%
same,inhibition at 10 µM,ACHN,37.8%
same,inhibition at 10 µM,SN 12C,31.9%
same,inhibition at 10 µM,UO-31,48.4%
same,inhibition at 10 µM,MDA-MB-231/ATCC,0.87%
same,inhibition at 10 µM,MDA-MB-468,26.4%
